Assay results taken from PubChem BioAssay (NCI).
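Growth conditions: 96-well plates. Treatment: test compound, 48 hours, 5 concentrations. Analysis: linear interpolation between bracketing concentrations; unreached endpoints set to highest concentration. Abbreviation: GI50, concentration required for 50% inhibition of growth. At the TGI there is no net growth.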

Assays:
Assay in all cases: inhibition of tumour cell growth, NCI panel, 48 h
CCRF-CEM leukemia = tested on: CCRF-CEM leukemia
HL-60(TB) leukemia = tested on: HL-60(TB) leukemia
PC-3 prostate = tested on: PC-3 prostate
KM12 colon = tested on: KM12 colon
K-562 leukemia = tested on: K-562 leukemia
NCI-H23 lung = tested on: NCI-H23 lung
SK-MEL-5 melanoma = tested on: SK-MEL-5 melanoma
SNB-19 CNS = tested on: SNB-19 CNS
SF-268 CNS = tested on: SF-268 CNS
T-47D breast = tested on: T-47D breast
HOP-92 NSCLC = tested on: HOP-92 NSCLC
RPMI-8226 leukemia = tested on: RPMI-8226 leukemia
ACHN renal = tested on: ACHN renal
U251 CNS = tested on: U251 CNS
MDA-MB-231 breast = tested on: MDA-MB-231 breast
MALME-3M melanoma = tested on: MALME-3M melanoma
SR leukemia = tested on: SR leukemia
A549 NSCLC = tested on: A549 NSCLC
HCT-15 colon = tested on: HCT-15 colon
NCI-H226 lung = tested on: NCI-H226 lung
SW-620 colon = tested on: SW-620 colon
UO-31 renal = tested on: UO-31 renal
A498 renal = tested on: A498 renal
SF-295 CNS = tested on: SF-295 CNS
HT29 colon = tested on: HT29 colon
SK-MEL-2 melanoma = tested on: SK-MEL-2 melanoma
HCT-116 colon = tested on: HCT-116 colon
TK-10 renal = tested on: TK-10 renal
LOX IMVI melanoma = tested on: LOX IMVI melanoma
M14 melanoma = tested on: M14 melanoma
786-0 renal = tested on: 786-0 renal
UACC-257 melanoma = tested on: UACC-257 melanoma
BT-549 breast = tested on: BT-549 breast
SK-OV-3 ovarian = tested on: SK-OV-3 ovarian
HOP-62 NSCLC = tested on: HOP-62 NSCLC
SF-539 CNS = tested on: SF-539 CNS
EKVX NSCLC = tested on: EKVX NSCLC
CAKI-1 renal = tested on: CAKI-1 renal
SK-MEL-28 melanoma = tested on: SK-MEL-28 melanoma
OVCAR-8 ovarian = tested on: OVCAR-8 ovarian
MDA-MB-435 = tested on: MDA-MB-435
MCF7 breast = tested on: MCF7 breast
SN12C renal = tested on: SN12C renal
DU-145 prostate = tested on: DU-145 prostate
OVCAR-5 ovarian = tested on: OVCAR-5 ovarian
MOLT-4 leukemia = tested on: MOLT-4 leukemia
NCI-H460 lung = tested on: NCI-H460 lung
HS 578T breast = tested on: HS 578T breast
NCI-H522 lung = tested on: NCI-H522 lung
UACC-62 melanoma = tested on: UACC-62 melanoma
HCC-2998 colon = tested on: HCC-2998 colon
NCI/ADR-RES ovarian = tested on: NCI/ADR-RES ovarian
OVCAR-3 ovarian = tested on: OVCAR-3 ovarian
IGROV1 ovarian = tested on: IGROV1 ovarian
RXF 393 renal = tested on: RXF 393 renal
OVCAR-4 ovarian = tested on: OVCAR-4 ovarian
MDA-MB-468 breast = tested on: MDA-MB-468 breast
SNB-75 CNS = tested on: SNB-75 CNS
COLO 205 colon = tested on: COLO 205 colon

`COc1ccccc1NC(=O)N/N=C/c1c[nH]c2ccccc12` was tested, and the GI50 (CCRF-CEM leukemia) was 0.379 µM, the TGI (CCRF-CEM leukemia) was 12.9 µM and the GI50 (HL-60(TB) leukemia) was 0.304 µM. The TGI (HL-60(TB) leukemia) was 3.51 µM, the GI50 (PC-3 prostate) was 1.6 µM and the TGI (PC-3 prostate) was 14.7 µM. It also gave a GI50 (KM12 colon) of 0.574 µM, a TGI (KM12 colon) of 11 µM and a GI50 (K-562 leukemia) of 0.229 µM. It also gave a TGI (K-562 leukemia) of 16.4 µM, a GI50 (NCI-H23 lung) of 1.45 µM and a TGI (NCI-H23 lung) of 10.8 µM. The GI50 (SK-MEL-5 melanoma) was 1.04 µM, the TGI (SK-MEL-5 melanoma) was 5.52 µM and the GI50 (SNB-19 CNS) was 2.58 µM. For the same molecule, the TGI (SNB-19 CNS) was 16.1 µM, the GI50 (SF-268 CNS) was 3.06 µM and the TGI (SF-268 CNS) was 20.6 µM. The GI50 (T-47D breast) was 1.04 µM, the TGI (T-47D breast) was over 100 µM and the GI50 (HOP-92 NSCLC) was 1.85 µM. It also gave a TGI (HOP-92 NSCLC) of 10.4 µM, a GI50 (RPMI-8226 leukemia) of 1.39 µM and a TGI (RPMI-8226 leukemia) of 6.09 µM. For the same molecule, the GI50 (ACHN renal) was 3.13 µM, the TGI (ACHN renal) was 15.8 µM and the GI50 (U251 CNS) was 1.45 µM. The TGI (U251 CNS) was 12.5 µM, the GI50 (MDA-MB-231 breast) was 0.824 µM and the TGI (MDA-MB-231 breast) was 12.6 µM. It also gave a GI50 (MALME-3M melanoma) of 0.559 µM, a TGI (MALME-3M melanoma) of 16.9 µM and a GI50 (SR leukemia) of 0.215 µM. For the same molecule, the TGI (SR leukemia) was 12.4 µM, the GI50 (A549 NSCLC) was 1.22 µM and the TGI (A549 NSCLC) was 18.2 µM. The GI50 (HCT-15 colon) was 0.348 µM, the TGI (HCT-15 colon) was 12 µM and the GI50 (NCI-H226 lung) was 4.11 µM. For the same molecule, the TGI (NCI-H226 lung) was 23 µM, the GI50 (SW-620 colon) was 0.479 µM and the TGI (SW-620 colon) was 18.5 µM. The GI50 (UO-31 renal) was 3.28 µM, the TGI (UO-31 renal) was 18.4 µM and the GI50 (A498 renal) was 10.1 µM. It also gave a TGI (A498 renal) of 22.4 µM, a GI50 (SF-295 CNS) of 0.816 µM and a TGI (SF-295 CNS) of 5.9 µM. For the same molecule, the GI50 (HT29 colon) was 0.427 µM, the TGI (HT29 colon) was 10.6 µM and the GI50 (SK-MEL-2 melanoma) was 0.67 µM. The TGI (SK-MEL-2 melanoma) was 4.92 µM, the GI50 (HCT-116 colon) was 0.405 µM and the TGI (HCT-116 colon) was 3.61 µM. For the same molecule, the GI50 (TK-10 renal) was 4.73 µM, the TGI (TK-10 renal) was 23.8 µM and the GI50 (LOX IMVI melanoma) was 0.803 µM. It also gave a TGI (LOX IMVI melanoma) of 14.9 µM, a GI50 (M14 melanoma) of 0.365 µM and a TGI (M14 melanoma) of 10.8 µM. It also gave a GI50 (786-0 renal) of 1.23 µM, a TGI (786-0 renal) of 3.77 µM and a GI50 (UACC-257 melanoma) of 10.7 µM. It also gave a TGI (UACC-257 melanoma) of 34.8 µM, a GI50 (BT-549 breast) of 0.194 µM and a TGI (BT-549 breast) of 4.69 µM. The GI50 (SK-OV-3 ovarian) was 2.48 µM, the TGI (SK-OV-3 ovarian) was 15.4 µM and the GI50 (HOP-62 NSCLC) was 3.01 µM. For the same molecule, the TGI (HOP-62 NSCLC) was 18.9 µM, the GI50 (SF-539 CNS) was 0.704 µM and the TGI (SF-539 CNS) was 2.86 µM. For the same molecule, the GI50 (EKVX NSCLC) was 2.2 µM, the TGI (EKVX NSCLC) was 13.9 µM and the GI50 (CAKI-1 renal) was 2.53 µM. The TGI (CAKI-1 renal) was 13.7 µM, the GI50 (SK-MEL-28 melanoma) was 1.57 µM and the TGI (SK-MEL-28 melanoma) was 17.6 µM. It also gave a GI50 (OVCAR-8 ovarian) of 2.12 µM, a TGI (OVCAR-8 ovarian) of 13.9 µM and a GI50 (MDA-MB-435) of 0.226 µM. For the same molecule, the TGI (MDA-MB-435) was 0.647 µM, the GI50 (MCF7 breast) was 0.423 µM and the TGI (MCF7 breast) was 12.3 µM. The GI50 (SN12C renal) was 1.1 µM, the TGI (SN12C renal) was 12.1 µM and the GI50 (DU-145 prostate) was 2.56 µM. For the same molecule, the TGI (DU-145 prostate) was 12.4 µM, the GI50 (OVCAR-5 ovarian) was 2.72 µM and the TGI (OVCAR-5 ovarian) was 15.5 µM. It also gave a GI50 (MOLT-4 leukemia) of 0.381 µM, a TGI (MOLT-4 leukemia) of 11.9 µM and a GI50 (NCI-H460 lung) of 0.961 µM. It also gave a TGI (NCI-H460 lung) of 12.6 µM, a GI50 (HS 578T breast) of 3.05 µM and a TGI (HS 578T breast) of 25.7 µM. It also gave a GI50 (NCI-H522 lung) of 0.177 µM, a TGI (NCI-H522 lung) of 0.428 µM and a GI50 (UACC-62 melanoma) of 0.473 µM. The TGI (UACC-62 melanoma) was 12.5 µM, the GI50 (HCC-2998 colon) was 1.42 µM and the TGI (HCC-2998 colon) was 14.2 µM. The GI50 (NCI/ADR-RES ovarian) was 0.299 µM, the TGI (NCI/ADR-RES ovarian) was 1.31 µM and the GI50 (OVCAR-3 ovarian) was 0.451 µM. For the same molecule, the TGI (OVCAR-3 ovarian) was 5.47 µM, the GI50 (IGROV1 ovarian) was 1.66 µM and the TGI (IGROV1 ovarian) was 20.5 µM. The GI50 (RXF 393 renal) was 1.66 µM, the TGI (RXF 393 renal) was 6.45 µM and the GI50 (OVCAR-4 ovarian) was 4.34 µM. For the same molecule, the TGI (OVCAR-4 ovarian) was 19.9 µM, the GI50 (MDA-MB-468 breast) was 0.236 µM and the TGI (MDA-MB-468 breast) was 2.74 µM. It also gave a GI50 (SNB-75 CNS) of 3.43 µM, a TGI (SNB-75 CNS) of 20.9 µM and a GI50 (COLO 205 colon) of 0.766 µM. For the same molecule, the TGI (COLO 205 colon) was 4.44 µM.
